From patent US20080171732A1, “New Pyridine Analogues IX 519” (AstraZeneca AB, priority 2007, published 2008)

The molecules below were run against T1, P2Y12 receptor (Homo sapiens, UniProt Q9H244) (assay: Functional inhibition of 2-Me-S-ADP induced P2Y12 signalling (35S-GTPγS, cell membranes from P2Y12 transfected CHO-cells)). Conditions: EC80 concentration of agonist 2-methyl-thio-adenosine diphosphate, 30° C., 45 min.
T1 construct: expressed in transfected cells; host or cells: CHO cells (membranes)
T1 sequence (Q9H244 whole entry): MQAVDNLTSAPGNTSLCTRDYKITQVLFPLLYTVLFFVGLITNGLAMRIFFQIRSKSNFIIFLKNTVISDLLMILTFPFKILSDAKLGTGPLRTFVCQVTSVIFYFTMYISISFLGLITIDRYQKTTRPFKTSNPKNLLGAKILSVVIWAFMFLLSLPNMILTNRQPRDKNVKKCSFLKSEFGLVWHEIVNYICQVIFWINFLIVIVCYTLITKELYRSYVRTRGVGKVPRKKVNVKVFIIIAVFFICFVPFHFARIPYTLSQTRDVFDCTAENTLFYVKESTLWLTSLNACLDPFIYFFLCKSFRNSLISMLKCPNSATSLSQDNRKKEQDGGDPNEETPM
Type: biochemical
Procedure: Functional inhibition of-the P2Y12 receptor can be measured by in vitro assays using cell membranes from P2Y12 transfected CHO-cells, the methodology is indicated below.
(§1) Functional inhibition of 2-Me-S-ADP induced P2Y12 signalling: 5 μg of membranes were diluted in 200 μl of 200 mM NaCl, 1 mM MgCl2, 50 mM HEPES (pH 7.4), 0.01% BSA, 30μg/ml saponin and 10 μM GDP. To this was added an EC80 concentration of agonist (2-methyl-thio-adenosine diphosphate), the required concentration of test compound and 0.1 μCi ^35S-GTPγS. The reaction was allowed to proceed at 30° C. for 45 min. Samples were then transferred on to GF/B filters using a cell harvester and washed with wash buffer (50 mM Tris (pH 7.4), 5 mM MgCl2, 50 mM NaCl). Filters were then covered with scintilant and counted for the amount of ^35S-GTPγS retained by the filter. Maximum activity was that determined in the presence of the agonist and minimum activity in the absence of the agonist following subtraction of the value determined for non-specific activity. The effect of compounds at various concentrations was plotted according to the equation
y=A+((B−A)/(1+((C/x)̂D)))
and IC50 estimated where • A is the bottom plateau of the curve i.e. the final minimum y value • B is the top of the plateau of the curve i.e. the final maximum y value • C is the x value at the middle of the curve. This represents the log EC50 value when A+B=100 • D is the slope factor. • x is the original known x values. • Y is the original known y values.
as §1, with “30 μg/ml” for “30μg/ml”, “0. 1” for “0.1”
`CCOC(=O)c1cc(C#N)c(N2CCC(C(=O)NS(=O)(=O)Cc3cccc(F)c3)CC2)nc1OC` [Example 10, Ethyl5-cyano-6-(4-{[(3-fluorobenzyl)sulfonyl]carbamoyl}piperidin-1-yl)-2-methoxynicotinate] gave an IC50 of 0.016 µM.
`CCCC(=O)c1cc(C#N)c(N2CCC(C(=O)NS(=O)(=O)Cc3ccc(Cl)cc3)CC2)nc1OC` [Example 52, 1-(5-Butyryl-3-cyano-6-methoxypyridin-2-yl)-N-[(4-chlorobenzyl)sulfonyl]piperidine-4-carboxamide] was tested, and the IC50 was 0.055 µM.
`CCOC(=O)c1cc(C#N)c(N2CCC(C(=O)NS(=O)(=O)Cc3ccc(F)cc3)CC2)nc1OC` [Example 11, Ethyl5-cyano-6-(4-{[(4-fluorobenzyl)sulfonyl]carbamoyl}piperidin-1-yl)-2-methoxynicotinate] was tested, and the IC50 was 0.009 µM.
For `CCOC(=O)c1cc(C#N)c(N2CCC(C(=O)NS(=O)(=O)Cc3ccccc3)CC2)nc1C#N` [Example 5, Ethyl6-{4-[(benzylsulfonyl)carbamoyl]piperidin-1-yl}-2,5-dicyanonicotinate], the IC50 was 0.009 µM.
In the case of `CCOCc1nc(N2CCC(C(=O)NS(=O)(=O)Cc3ccccc3)CC2)c(C#N)cc1C(=O)OCC` [Example 34, Ethyl6-{4-[(benzylsulfonyl)carbamoyl]piperidin-1-yl}-5-cyano-2-(ethoxymethyl)nicotinate], the IC50 was 0.034 µM.
With `CCOC(=O)c1cc(C#N)c(N2CCC(C(=O)NS(=O)(=O)Cc3ccccc3)CC2)nc1SCC` [Example 4, Ethyl6-{4-[(benzylsulfonyl)carbamoyl]piperidin-1-yl}-5-cyano-2-(ethylthio)nicotinate] the IC50 was 0.006 µM.
`CCOC(=O)c1cc(C#N)c(N2CCC(C(=O)NS(=O)(=O)Cc3ccccc3)CC2)nc1CO` [Example 6, Ethyl6-{4-[(benzylsulfonyl)carbamoyl]piperidin-1-yl}-5-cyano-2-(hydroxymethyl)nicotinate] gave an IC50 of 0.017 µM.
`COc1nc(N2CCC(C(=O)NS(=O)(=O)Cc3ccc(F)cc3)CC2)c(C#N)cc1C(=O)OC(C)C` [Example 56, Isopropyl5-cyano-6-(4-{[(4-fluorobenzyl)sulfonyl]carbamoyl}piperidin-1-yl)-2-methoxynicotinate] showed an IC50 of 0.025 µM.
Work on `CCOC(=O)c1cc(C#N)c(N2CCC(C(=O)NS(=O)(=O)Cc3ccccc3Cl)CC2)nc1OC` [Example 9, Ethyl6-(4-{[(2-chlorobenzyl)sulfonyl]carbamoyl}piperidin-1-yl)-5-cyano-2-methoxynicotinate] yielded an IC50 of 0.032 µM.
`CCOC(=O)c1cc(Cl)c(N2CCC(C(=O)NS(=O)(=O)Cc3ccccc3)CC2)nc1Cl` [Example 59, Ethyl6-{4-[(benzylsulfonyl)carbamoyl]piperidin-1-yl}-2,5-dichloronicotinate] gave an IC50 of 0.033 µM.
`CCOC(=O)c1cc(C#N)c(N2CC(C(=O)NS(=O)(=O)c3ccccc3)C2)nc1OC` [Example 20, Ethyl5-cyano-2-methoxy-6-{3-[(phenylsulfonyl)carbamoyl]azetidin-1-yl}nicotinate] gave an IC50 of 0.102 µM.
`CCCC(=O)c1cc(C#N)c(N2CCC(C(=O)NS(=O)(=O)Cc3ccc(F)cc3)CC2)nc1OC` [Example 51, 1-(5-Butyryl-3-cyano-6-methoxypyridin-2-yl)-N-[(4-fluorobenzyl)sulfonyl]piperidine-4-carboxamide] showed an IC50 of 0.05 µM.
With `CCOC(=O)c1cc(C#N)c(N2CCC(C(=O)NS(=O)(=O)Cc3ccccc3)CC2)nc1CCOC` [Example 45, Ethyl6-{4-[(benzylsulfonyl)carbamoyl]piperidin-1-yl}-5-cyano-2-(2-methoxyethyl)nicotinate] the IC50 was 0.06 µM.
`CCOC(=O)c1cc(C#N)c(N2CC(C(=O)NS(=O)(=O)Cc3ccccc3)C2)nc1SC` [Example 57, Ethyl6-{3-[(benzylsulfonyl)carbamoyl]azetidin-1-yl}-5-cyano-2-(methylthio)nicotinate] was tested, and the IC50 was 0.018 µM.
`CCOC(=O)c1cc(C#N)c(N2CCC(C(=O)NS(=O)(=O)Cc3ccc(F)cc3Cl)CC2)nc1OC` [Example 17, Ethyl6-(4-{[(2-chloro-4-fluorobenzyl)sulfonyl]carbamoyl}piperidin-1-yl)-5-cyano-2-methoxynicotinate] was tested, and the IC50 was 0.024 µM.
`CCOC(=O)c1cc(C#N)c(N2CCC(C(=O)NS(=O)(=O)Cc3ccc(Cl)cc3F)CC2)nc1OC` [Example 18, Ethyl6-(4-{[(4-chloro-2-fluorobenzyl)sulfonyl]carbamoyl}piperidin-1-yl)-5-cyano-2-methoxynicotinate] was tested, and the IC50 was 0.01 µM.
With `CCOC(=O)c1cc(C#N)c(N2CCC(C(=O)NS(=O)(=O)Cc3ccccc3)CC2)nc1OC` [Example 1, Ethyl6-{4-[(benzylsulfonyl)carbamoyl]piperidin-1-yl}-5-cyano-2-methoxynicotinate] the IC50 was 0.012 µM.
`CCOC(=O)c1cc(C#N)c(N2CCC(C(=O)NS(=O)(=O)Cc3ccccc3)CC2)nc1OCC` [Example 3, Ethyl6-{4-[(benzylsulfonyl)carbamoyl]piperidin-1-yl}-5-cyano-2-ethoxynicotinate] was tested, and the IC50 was 0.012 µM.
With `CCOC(=O)c1cc(C#N)c(N2CC(C(=O)NS(=O)(=O)Cc3ccc(F)c(F)c3)C2)nc1OC` [Example 27, Ethyl5-cyano-6-(3-{[(3,4-difluorobenzyl)sulfonyl]carbamoyl}azetidin-1-yl)-2-methoxynicotinate] the IC50 was 0.035 µM.
With `CCOC(=O)c1cc(C#N)c(N2CCC(C(=O)NS(=O)(=O)Cc3ccc(Cl)cc3)CC2)nc1OC` [Example 12, Ethyl6-(4-{[(4-chlorobenzyl)sulfonyl]carbamoyl}piperidin-1-yl)-5-cyano-2-methoxynicotinate] the IC50 was 0.009 µM.
Molecule `CCOC(=O)c1cc(C#N)c(N2CCC(C(=O)NS(=O)(=O)Cc3ccccc3)CC2)nc1Cn1ccnc1` [Example 49, Ethyl6-{4-[(benzylsulfonyl)carbamoyl]piperidin-1-yl}-5-cyano-2-(1H-imidazol-1-ylmethyl)nicotinate] has an IC50 of 0.073 µM.
`CCOC(=O)c1cc(C#N)c(N2CCC(C(=O)NS(=O)(=O)Cc3ccc(F)cc3F)CC2)nc1OC` [Example 16, Ethyl5-cyano-6-(4-{[(2,4-difluorobenzyl)sulfonyl]carbamoyl}piperidin-1-yl)-2-methoxynicotinate] showed an IC50 of 0.008 µM.
Molecule `CCOC(=O)c1cc(C#N)c(N2CC(C(=O)NS(=O)(=O)Cc3ccccc3F)C2)nc1OCC` [Example 40, Ethyl5-cyano-2-ethoxy-6-(3-{[(2-fluorobenzyl)sulfonyl]carbamoyl}azetidin-1-yl)nicotinate] has an IC50 of 0.031 µM.
`CCOC(=O)c1cc(F)c(N2CCC(C(=O)NS(=O)(=O)Cc3ccccc3)CC2)nc1Cl` [Example 46, Ethyl6-{4-[(benzylsulfonyl)carbamoyl]piperidin-1-yl}-2-chloro-5-fluoronicotinate] gave an IC50 of 0.048 µM.
`CCOCc1nc(N2CC(C(=O)NS(=O)(=O)Cc3ccccc3)C2)c(C#N)cc1C(=O)OCC` [Example 33, Ethyl6-{3-[(benzylsulfonyl)carbamoyl]azetidin-1-yl}-5-cyano-2-(ethoxymethyl)nicotinate] gave an IC50 of 0.069 µM.
`CCOC(=O)c1cc(C#N)c(N2CC(C(=O)NS(=O)(=O)Cc3ccc(C(F)(F)F)cc3)C2)nc1OC` [Example 26, Ethyl5-cyano-2-methoxy-6-[3-({[4-(trifluoromethyl)benzyl]sulfonyl}carbamoyl)azetidin-1-yl]nicotinate] showed an IC50 of 0.012 µM.
For `CCOC(=O)c1cc(C#N)c(N2CCC(C(=O)NS(=O)(=O)Cc3ccc(F)c(F)c3)CC2)nc1OC` [Example 14, Ethyl5-cyano-6-(4-{[(3,4-difluorobenzyl)sulfonyl]carbamoyl}piperidin-1-yl)-2-methoxynicotinate], the IC50 was 0.013 µM.
In the case of `CCOC(=O)c1cc(F)c(N2CCC(C(=O)NS(=O)(=O)Cc3ccccc3)CC2)nc1SC` [Example 44, Ethyl6-{4-[(benzylsulfonyl)carbamoyl]piperidin-1-yl}-5-fluoro-2-(methylthio)nicotinate], the IC50 was 0.042 µM.
“Ethyl5-cyano-6-(3-{[(2-fluorobenzyl)sulfonyl]carbamoyl}azetidin-1-yl)-2-methoxynicotinate [Example 21]” was tested, and the IC50 was 0.015 µM.
`COc1nc(N2CCC(C(=O)NS(=O)(=O)Cc3ccccc3)CC2)c(C#N)cc1C(=O)OC(C)C` [Example 60, Isopropyl6-{4-[(benzylsulfonyl)carbamoyl]piperidin-1-yl}-5-cyano-2-methoxynicotinate] showed an IC50 of 0.027 µM.
With `CCOC(=O)c1cc(C#N)c(N2CC(C(=O)NS(=O)(=O)Cc3ccc(F)cc3Cl)C2)nc1OC` [Example 30, Ethyl6-(3-{[(2-chloro-4-fluorobenzyl)sulfonyl]carbamoyl}azetidin-1-yl)-5-cyano-2-methoxynicotinate] the IC50 was 0.009 µM.
